Data on twelve compounds can be found in ChEMBL document CHEMBL1201862, “PubChem BioAssay data set” (2004).

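Step 1: Grow cells in 96-well plates. Step 2: Expose to compound for 48 hours at 5 concentrations. Step 3: Interpolate endpoints linearly; if unreached, use highest concentration. GI50 is the concentration that inhibits growth by half.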 Active and inactive are the calls of the source. Rule as the data show it: active = GI50 up to about 1.1 µM and inactive = higher.

Test systems include XF498; KM-20L2; HOP-18; DMS-114; LXFL 529; DLD-1; RXF 631; T47D; BT-549.
Common to all, as to assay: NCI tumour cell line growth inhibition, 48 h

As to `CN1C(=O)C(=O)N2c3ccc(Cl)cc3C3(c4ccccc4)N=CC12O3` (stereo unspecified), the GI50 with XF498 was 3.13 µM (inactive); in the test with KM-20L2, 8.83 µM (inactive); in the test with HOP-18, 20.4 µM (inactive); in the test with DMS-114, 3.21 µM (inactive); in the test on LXFL 529, 3 µM (inactive); in the test with DLD-1, 2.83 µM (inactive).
As to `Cc1ccc(NC(=O)CCC(=O)C(C#N)c2ccc(Cl)cc2)cc1C` (stereo unspecified), the GI50 in the test on XF498, with KM-20L2, with HOP-18, in the test on DMS-114, in the test on LXFL 529 and in the test with DLD-1 was > 100 µM (inactive) each time.
Regarding `CN(C)/C(F)=P\C(F)(F)F` (stereo unspecified), the GI50 in the test on XF498, in the test with KM-20L2, in the test on HOP-18, in the test on DMS-114, in the test with LXFL 529 and in the test on DLD-1 was > 100 µM (inactive) throughout.
In the case of `COc1ccc(SS(=O)(=O)c2ccc(OC)cc2)cc1`, the GI50 with KM-20L2 is 21.3 µM (inactive); in the test on HOP-18, 22.5 µM (inactive); in the test with DMS-114 it was 16 µM (inactive); with LXFL 529, 17.7 µM (inactive); in the test with RXF 631, 39 µM (inactive); in the test on DLD-1, 21.9 µM (inactive).
For the compound `CCCCCCCCCCCCCCCC(=O)OCCOCCOCCOCCOCCOC(=O)CCCCCCCCCCCCCCC`, the GI50 in the test with KM-20L2, in the test on HOP-18, with DMS-114, with LXFL 529, with RXF 631 and with DLD-1 was > 100 µM (inactive) each time.
For `O=c1c(O)c(-c2ccccc2)n(O)c2ccc(Cl)cc12`, the GI50 in the test on KM-20L2 was 28.1 µM (inactive); in the test with HOP-18, 47.8 µM (inactive); with DMS-114, 23 µM (inactive); in the test on LXFL 529, 23.8 µM (inactive); in the test with RXF 631, 27.5 µM (inactive); in the test on DLD-1 it was 26.8 µM (inactive).
In the case of `CC(C)c1cc(OCC(O)CO)cc(C(C)C)c1` (stereo unspecified), the GI50 in the test with XF498, in the test on KM-20L2, in the test with HOP-18, in the test on DMS-114, with LXFL 529 and in the test with DLD-1 was > 100 µM (inactive) each time.
`CC(C)(C)C#C[P+](c1ccccc1)(c1ccccc1)c1ccccc1`: the GI50 is 0.345 µM (active) in the test on KM-20L2; 0.855 µM (active) with HOP-18; 0.0586 µM (active) with LXFL 529; 1 µM (active) in the test on RXF 631; 0.191 µM (active) in the test with DLD-1.
In the case of `CC(C)NCC(O)COC(=O)c1cccs1` (stereo unspecified), the GI50 in the test with XF498, in the test on KM-20L2, with LXFL 529, with RXF 631 and in the test with DLD-1 was > 100 µM (inactive) in each case.
For the compound `Cc1cc(=O)oc2cc(OCCCOc3ccc4c(C)cc(=O)oc4c3)ccc12`, the GI50 in the test on XF498 was 31.3 µM (inactive); in the test on KM-20L2, > 100 µM (inactive); with DMS-114, > 100 µM (inactive); in the test with LXFL 529, > 100 µM (inactive); with RXF 631, > 100 µM (inactive); in the test on DLD-1, > 100 µM (inactive).
On to `O=C(O)CN(c1ccccc1)S(=O)(=O)c1ccc(NC(=O)c2ccccc2)cc1`, for which the GI50 in the test on XF498, in the test with KM-20L2, in the test on HOP-18, with LXFL 529 and in the test on DLD-1 was > 100 µM (inactive) in each case.
For `COc1cc(C[C@H]2c3cc(OC)c(OC)cc3CCN2C)c(Oc2cc3c(cc2OC)-c2c(OC)c(OC)cc4c2[C@H](C3)N(C)CC4)cc1OC` [THALICARPINE], the GI50 with XF498 was 8.97 µM (inactive); in the test on KM-20L2 it was 4.53 µM (inactive); with T47D, 10.1 µM (inactive); in the test on DMS-114, 9.1 µM (inactive); with LXFL 529 it was 11 µM (inactive); with BT-549, 6.52 µM (inactive). Besides, the GI50 with RXF 631 is 5.52 µM (inactive); with DLD-1, 15.1 µM (inactive).
